From ChEMBL document CHEMBL5550184, “Structure-activity relationships of middle-size cyclic peptides, KRAS inhibitors derived from an mRNA display” (Bioorg Med Chem, 2024)
Positions of bridges follow the written chain, without caps; N, C: chain ends. Non-standard residues stand in square brackets, D forms with d. Residues, ends and D or L forms follow the SMILES beside them. *: point of attachment. hPhe(3-Cl-4-CF3) = N[C@@H](CCc1ccc(C(F)(F)F)c(Cl)c1)C(=O)O; NMeGly(cPent) = CN[C@H](C(=O)O)C1CCCC1; NMeCha = CN[C@@H](CC1CCCCC1)C(=O)O; NMeD = CN[C@@H](CC(=O)O)C(=O)O; NMeL = CN[C@@H](CC(C)C)C(=O)O; Morpholide = C1CN(*)CCO1; NMeA = CN[C@@H](C)C(=O)O; Piperidide = C1CCN(*)CC1; Ac5c = NC1(C(=O)O)CCCC1; Aze = O=C(O)[C@@H]1CCN1; Sar = CNCC(=O)O

Columns and labels:
[1] = Metabolic stability in monkey liver microsomes assessed as intrinsic clearance per mg protein at 0.2 uM measured upto 30 mins by LC-MS/MS analysis; type: ADME, Macaca mulatta, Microsome; conditions: rhesus monkey, read-out: CLH
[2] = Volume of distribution at steady state in Wistar Hannover rat at 1 mg/kg, iv measured upto 24 hrs by LC-MS/MS analysis; type: ADME, organism-based; conditions: in vivo
[3] = Inhibition of biotin-tagged KRAS G12D mutant (unknown origin) to recombinant His-tagged SOS1 (unknown origin) protein-protein interaction incubated for 120 mins by AlphaLISA method; design: species or system Homo sapiens
[4] = Oral bioavailability in Cynomolgus monkey at 15 mg/kg measured upto 48 hrs by LC-MS/MS analysis; type: ADME, organism-based, Macaca fascicularis; conditions: in vivo
[5] = Clearance in BALB/c nude mouse at 1 mg/kg, iv measured upto 24 hrs by LC-MS/MS analysis; type: ADME, organism-based; conditions: in vivo
[6] = Volume of distribution at steady state in Cynomolgus monkey at 0.167 mg/kg, iv measured upto 24 hrs by LC-MS/MS analysis; type: ADME, organism-based, Macaca fascicularis; conditions: in vivo, read-out: Vdss
[7] = Half-life in Wistar Hannover rat at 10 mg/kg, po measured upto 48 hrs by LC-MS/MS analysis; type: ADME, organism-based; conditions: in vivo
[8] = Clearance in Wistar Hannover rat at 1 mg/kg, iv measured upto 24 hrs by LC-MS/MS analysis; type: ADME, organism-based; conditions: in vivo
[9] = Half-life in BALB/c nude mouse at 1 mg/kg, iv measured upto 24 hrs by LC-MS/MS analysis; type: ADME, organism-based; conditions: in vivo
[10] = Metabolic stability in human liver microsomes assessed as intrinsic clearance per mg protein at 0.2 uM measured upto 30 mins by LC-MS/MS analysis; type: ADME, Microsome; conditions: read-out: CLH
[11] = Half-life in Wistar Hannover rat at 1 mg/kg, iv measured upto 24 hrs by LC-MS/MS analysis; type: ADME, organism-based; conditions: in vivo
[12] = AUCinfinity in BALB/c nude mouse at 1 mg/kg, iv measured upto 24 hrs by LC-MS/MS analysis; type: ADME, organism-based; conditions: in vivo
[13] = Half-life in Cynomolgus monkey at 0.167 mg/kg, iv measured upto 24 hrs by LC-MS/MS analysis; type: ADME, organism-based, Macaca fascicularis; conditions: in vivo
[14] = AUCinfinity in Wistar Hannover rat at 10 mg/kg, po measured upto 48 hrs by LC-MS/MS analysis; type: ADME, organism-based; conditions: in vivo
[15] = Apparent permeability in human Caco-2 cells incubated for 180 mins by LC-MS/MS method; type: ADME, cell-based
[16] = Half-life in BALB/c nude mouse at 20 mg/kg, po measured upto 24 hrs by LC-MS/MS analysis; type: ADME, organism-based; conditions: in vivo
[17] = Volume of distribution at steady state in BALB/c nude mouse at 1 mg/kg, iv measured upto 24 hrs by LC-MS/MS analysis; type: ADME, organism-based; conditions: in vivo, read-out: Vdss
GTPase KRas = GTPase KRas (Homo sapiens, UniProt P01116, G12D); assay: Binding affinity to biotinylated KRAS G12D mutant (unknown origin) incubated for 120 mins by SPR analysis
[18] = AUCinfinity in BALB/c nude mouse at 20 mg/kg, po measured upto 24 hrs by LC-MS/MS analysis; type: ADME, organism-based; conditions: in vivo
[19] = AUCinfinity in Cynomolgus monkey at 15 mg/kg, po measured upto 48 hrs by LC-MS/MS analysis; type: ADME, organism-based, Macaca fascicularis; conditions: in vivo
[20] = Oral bioavailability in BALB/c nude mouse at 20 mg/kg measured upto 24 hrs by LC-MS/MS analysis; type: ADME, organism-based; conditions: in vivo
[21] = AUCinfinity in Cynomolgus monkey at 0.167 mg/kg, iv measured upto 24 hrs by LC-MS/MS analysis; type: ADME, organism-based, Macaca fascicularis; conditions: in vivo
ASPC1 = assay: Cytotoxicity against human AsPC1 cells assessed as reduction in cell viability incubated for 7 days by CellTiterGlo Luminescent Cell Viability Assay; type: functional, cell-based; conditions: ASPC1, 168 h
[22] = Oral bioavailability in Wistar Hannover rat at 10 mg/kg measured upto 48 hrs by LC-MS/MS analysis; type: ADME, organism-based; conditions: in vivo
[23] = AUCinfinity in Wistar Hannover rat at 1 mg/kg, iv measured upto 24 hrs by LC-MS/MS analysis; type: ADME, organism-based; conditions: in vivo
[24] = Metabolic stability in rat liver microsomes assessed as intrinsic clearance per mg protein at 0.2 uM measured upto 30 mins by LC-MS/MS analysis; type: ADME, Microsome; conditions: read-out: CLH
[25] = Half-life in Cynomolgus monkey at 15 mg/kg, po measured upto 48 hrs by LC-MS/MS analysis; type: ADME, organism-based, Macaca fascicularis; conditions: in vivo
[26] = Metabolic stability in mouse liver microsomes assessed as intrinsic clearance per mg protein at 0.2 uM measured upto 30 mins by LC-MS/MS analysis; type: ADME, Microsome; conditions: read-out: CLH
[27] = Clearance in Cynomolgus monkey at 0.167 mg/kg, iv measured upto 24 hrs by LC-MS/MS analysis; type: ADME, organism-based, Macaca fascicularis; conditions: in vivo
[28] = Oral bioavailability in Cynomolgus monkey at 10 mg/kg measured upto 24 hrs by LC-MS/MS analysis; type: ADME, organism-based, Macaca fascicularis; conditions: in vivo
[29] = Half-life in Cynomolgus monkey at 10 mg/kg, po measured upto 48 hrs by LC-MS/MS analysis; type: ADME, organism-based, Macaca fascicularis; conditions: in vivo
[30] = Half-life in Cynomolgus monkey at 0.168 mg/kg, iv measured upto 24 hrs by LC-MS/MS analysis; type: ADME, organism-based, Macaca fascicularis; conditions: in vivo
[31] = Clearance in Cynomolgus monkey at 0.168 mg/kg, iv measured upto 24 hrs by LC-MS/MS analysis; type: ADME, organism-based, Macaca fascicularis; conditions: in vivo
[32] = AUCinfinity in Cynomolgus monkey at 0.168 mg/kg, iv measured upto 24 hrs by LC-MS/MS analysis; type: ADME, organism-based, Macaca fascicularis; conditions: in vivo
[33] = Volume of distribution at steady state in Cynomolgus monkey at 0.168 mg/kg, iv measured upto 24 hrs by LC-MS/MS analysis; type: ADME, organism-based, Macaca fascicularis; conditions: in vivo, read-out: Vdss
[34] = AUCinfinity in Cynomolgus monkey at 10 mg/kg, po measured upto 48 hrs by LC-MS/MS analysis; type: ADME, organism-based, Macaca fascicularis; conditions: in vivo

Sequence of GTPase KRas (P01116 whole entry G12D): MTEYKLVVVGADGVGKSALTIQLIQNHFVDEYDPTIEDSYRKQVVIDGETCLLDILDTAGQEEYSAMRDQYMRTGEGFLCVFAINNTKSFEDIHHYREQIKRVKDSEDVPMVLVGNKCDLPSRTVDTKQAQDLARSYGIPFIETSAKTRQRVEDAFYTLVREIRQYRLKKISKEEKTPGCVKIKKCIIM

Row | SMILES | microsomal CLint at 0.2 µM [1] [µL/min/mg] | IC50 [3] [nM] | clearance [5] [mL/min/kg] | half-life [7] [h] | half-life [9] [h] | microsomal CLint at 0.2 µM [10] [µL/min/mg] | AUC(0-inf) [14] [ng·h/mL] | Papp at 3 h [15] [×10⁻⁶ cm/s] | half-life [16] [h] | Vd [17] [L/kg] | Kd (GTPase KRas) [nM] | IC50 (ASPC1) [nM] | bioavailability [22] [%] | AUC(0-inf) [23] [ng·h/mL] | microsomal CLint at 0.2 µM [24] [µL/min/mg] | microsomal CLint at 0.2 µM [26] [µL/min/mg] | further results
1 | CC[C@H](C)[C@@H]1NC(=O)[C@H](CC(C)C)N(C)C(=O)C[C@@H](C(=O)N2CCOCC2)N(C)C(=O)[C@H](C2CCCC2)N(C)C(=O)C2(CCCC2)NC(=O)[C@@H]2CCCN2C(=O)[C@H](CCc2ccc(C(F)(F)F)c(Cl)c2)NC(=O)CN(C)C(=O)[C@H](CC2CCCCC2)N(C)C(=O)[C@@H]2CCN2C(=O)[C@H](C)N(C)C1=O ([NMeL]I[NMeA][Aze][NMeCha][Sar][hPhe(3-Cl-4-CF3)]P[Ac5c][NMeGly(cPent)][NMeD]-Morpholide; lactam N-11) | 43 | < 2 | 12.4 | 3.96 | 5.98 | 26 | 3520 | 1.74 | 4.16 | 3 | 0.18 | 4.8 | 21 | 2140 | 28 | 27 | Vd ([2]; Wistar Hannover, read-out: Vdss): 0.82 L/kg; F [4]: 7.2%; Vd [6]: 0.37 L/kg; clearance [8]: 7.81 mL/min/kg; half-life ([11]; Wistar Hannover): 5.57 h; AUC(0-inf) ([12]; BALB/c nude): 1350 ng·h/mL; half-life [13]: 8.14 h; AUC(0-inf) ([18]; BALB/c nude): 3880 ng·h/mL; AUC [19]: 12500 ng·h/mL; bioavailability ([20]; BALB/c nude): 14%; AUC [21]: 673 ng·h/mL; half-life [25]: 7.71 h; clearance [27]: 4.3 mL/min/kg
2 | CC[C@H](C)[C@@H]1NC(=O)[C@H](CC(C)C)N(C)C(=O)C[C@@H](C(=O)N2CCCCC2)N(C)C(=O)[C@H](C2CCCC2)N(C)C(=O)C2(CCCC2)NC(=O)[C@@H]2CCCN2C(=O)[C@H](CCc2ccc(C(F)(F)F)c(Cl)c2)NC(=O)CN(C)C(=O)[C@H](CC2CCCCC2)N(C)C(=O)[C@@H]2CCN2C(=O)[C@H](C)N(C)C1=O ([NMeL]I[NMeA][Aze][NMeCha][Sar][hPhe(3-Cl-4-CF3)]P[Ac5c][NMeGly(cPent)][NMeD]-Piperidide; lactam N-11) | 32 | < 2 | 5.9 | 3.95 | 8.62 | 18 | 5770 | 0.61 | 6.46 | 0.85 | 0.47 | 18 | 5.7 | 7970 | 28 | 24 | Vdss ([2]; iv, 1 mg/kg, 24 h): 2.6 L/kg; bioavailability [28]: 11%; t1/2 ([11]; iv, 1 mg/kg, 24 h): 6.23 h; AUC ([12]; iv, 1 mg/kg, 24 h): 2860 ng·h/mL; half-life [29]: 8.65 h; half-life [30]: 7.3 h; clearance [31]: 1.81 mL/min/kg; AUC(0-inf) [32]: 1590 ng·h/mL; AUC ([18]; po, 20 mg/kg, 24 h): 3270 ng·h/mL; Vd [33]: 0.49 L/kg; F ([20]; po, 20 mg/kg, 24 h): 16%; AUC(0-inf) [34]: 10700 ng·h/mL
